In patent US20250179059A1 (The Regents of the University of California, priority 2021, published 2025) one finds GI50 and IC50 data, which are given here for 19 molecules.

The subject of assay [1] is human SKM-1 acute myeloid leukemia cells. The assay can be described thus: SKM-1 antiproliferation cell-based assay (ATPlite). As to conditions: Homo sapiens. The method, boiled down: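 Log-phase cells in RPMI 1640/15% FBS were seeded at 34722 cells/mL and exposed for 4 days to nine-concentration DMSO serial dilutions in triplicate. Viability was read as ATP luminescence (ATPlite 1step), and IC50 values came from variable-slope non-linear regression.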

Assay [2] has as its target T1, human BRD4 bromodomain II (Homo sapiens, UniProt O60885).
T1 construct: human BRD4 bromodomain II [based on Genbank NM_058243, residues 349-460]; host or cells: E. coli
The assay can be described thus: Bromodomain binding assay (AlphaScreen), BRD4 BDII. The method, boiled down:
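Compounds (10-point, 3-fold series) were preincubated 30 min at room temperature with E. coli-expressed N-terminal His6-tagged BRD4 BDII (residues 349-460) or BDI (residues 44-170) in 50 mM HEPES pH 7.5, 100 mM NaCl, 0.05% CHAPS, 0.1% BSA, 1% DMSO. Displacement of biotinylated tetra-acetylated H4 1-21 peptide was read by AlphaScreen; IC50 from curve fitting.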
(Bead proximity is the source of the signal in Alpha formats.)

[3] abbreviates: SKM-1, 96 h, SKM-1 antiproliferation assay, 4 days, Table C2.
The mark [4] stands for this setting: AlphaScreen assay, Table C2, read-out: BRD4 BDII IC50.
Where [5] appears, read: SKM-1, SKM-1 antiproliferation assay.
The mark [6] stands for this setting: BRD4 BDII AlphaScreen assay, read-out: BRD4 BD2 IC50.

Read-outs that look alike come from different tables or passages of the source. Bounds are passed on as bounds.

What is called GI50 is the concentration giving 50% growth inhibition. High values mean lower sensitivity of the cells, low ones greater sensitivity of the cells. The term IC50 denotes the concentration needed to halve the response being measured. In assay [1] (setting [3]), `Cn1ccn(-c2ccc(-c3cc(F)cc(-c4ccnc(N5CC6(CNC6)C5)c4)c3O)cc2Cl)c1=O` [Example 455, 1-(3′-(2-(2,6-diazaspiro[3.3]heptan-2-yl)pyridin-4-yl)-3-chloro-5′-fluoro-2′-hydroxy-[1,1′-biphenyl]-4-yl)-3-methyl-1H-imidazol-2(3H)-one] yielded a GI50 of 30 to 300 nM. For the same molecule, the concentration for half-maximal inhibition (IC50) in assay [2] (setting [4]) lay in the range of 1 to 10 nM.
The molecule `COCC(C)(C)N1CCN(c2cc(-c3cc(F)cc(-c4ccc(-n5ccn(C)c5=O)c(Cl)c4)c3O)cn(C)c2=O)CC1` [Example 763] displayed a concentration for 50% growth inhibition (GI50) in assay [1] (setting [3]) of 0.3 to 30 nM. Besides, in assay [2] (setting [4]), the IC50 lay within 1 to 10 nM.
The matching figures for `Cc1ccc(S(=O)(=O)n2ccc3c(N4CCN[C@H](C)C4)cc(-c4cc(F)cc(-c5ccc(-n6ccn(C)c6=O)c(Cl)c5)c4O)cc32)cc1` [Example 608, (R)-1-(3-chloro-5′-fluoro-2′-hydroxy-3′-(4-(3-methylpiperazin-1-yl)-1-tosyl-1H-indol-6-yl)-[1,1′-biphenyl]-4-yl)-3-methyl-1H-imidazol-2(3H)-one]: 30 to 300 nM and 10 to 100 nM.
The matching figures for `Cn1ccn(-c2ccc(-c3cc(F)cc(-c4ccnc(N5CC[S+]([O-])CC5)c4)c3O)cc2Cl)c1=O` [Example 690, 1-(3-chloro-5′-fluoro-2′-hydroxy-3′-(2-(1-oxidothiomorpholino)pyridin-4-yl)-[1,1′-biphenyl]-4-yl)-3-methyl-1H-imidazol-2(3H)-one]: 30 to 300 nM and 0.01 to 1 nM.
In turn, `CN1CC2CN(c3cc(-c4cc(F)cc(-c5ccc(-n6ccn(C)c6=O)c(Cl)c5)c4O)ccn3)CC21` (centres unmarked) [Example 659, 1-(3-chloro-5′-fluoro-2′-hydroxy-3′-(2-(6-methyl-3,6-diazabicyclo[3.2.0]heptan-3-yl)pyridin-4-yl)-[1,1′-biphenyl]-4-yl)-3-methyl-1H-imidazol-2(3H)-one] returned a GI50 in assay [1] (setting [3]) of 0.3 to 30 nM. In assay [2] (setting [4]), the IC50 was in the range of 0.01 to 1 nM.
`CC(=O)Nc1cc(-c2cc(F)cc(-c3ccc(-n4ccn(C)c4=O)c(Cl)c3)c2O)cc(N2CCNCC2)n1` [Example 442, N-(4-(3′-chloro-5-fluoro-2-hydroxy-4′-(3-methyl-2-oxo-2,3-dihydro-1H-imidazol-1-yl)-[1,1′-biphenyl]-3-yl)-6-(piperazin-1-yl)pyridin-2-yl)acetamide]: the 50% growth inhibitory concentration (GI50) in assay [1] (setting [3]) fell in the range of 0.3 to 30 nM. Also, the IC50 in assay [2] (setting [4]) was 0.01 to 1 nM.
For `CN1CCN(c2ccc(-c3cccc(-c4cc(C#N)cc(N5CCNCC5)c4)c3O)cc2Cl)C1=O` [Example 331, 3″-chloro-2′-hydroxy-4″-(3-methyl-2-oxoimidazolidin-1-yl)-5-(piperazin-1-yl)-[1,1′:3′,1″-terphenyl]-3-carbonitrile] the same measures were 30 to 300 nM and 1 to 10 nM.
In assay [1] (setting [3]), `COc1ncc(-c2cc(F)cc(-c3ccc(-n4ccn(C)c4=O)c(Cl)c3)c2O)cc1N1CC(C)(O)C1` [Example 834, 1-(3-chloro-5′-fluoro-2′-hydroxy-3′-(5-(3-hydroxy-3-methylazetidin-1-yl)-6-methoxypyridin-3-yl)-[1,1′-biphenyl]-4-yl)-3-methyl-1H-imidazol-2(3H)-one] gave a GI50 of 0.3 to 30 nM. Besides, in assay [2] (setting [4]), the IC50 was 1 to 10 nM.
Regarding `Cn1ccn(-c2ccc(-c3cc(F)cc(-c4ccnc(N5CC(C)(O)C(F)(F)C5)c4)c3O)cc2Cl)c1=O` (centres unmarked) [Example 861], the GI50 in assay [1] (setting [5]) lay within 0.3 to 30 nM. Also, in assay [2] (setting [6]), the 50% inhibitory concentration (IC50) was 1 to 10 nM.
`CC(C)N1CCN(c2cc(-c3cc(F)cc(-c4ccc(-n5ccn(C)c5=O)c(Cl)c4)c3O)cnc2OC(F)F)CC1` [Example 824, 1-(3-chloro-3′-(6-(difluoromethoxy)-5-(4-isopropylpiperazin-1-yl)pyridin-3-yl)-5′-fluoro-2′-hydroxy-[1,1′-biphenyl]-4-yl)-3-methyl-1H-imidazol-2(3H)-one] showed a 50% growth inhibitory concentration (GI50) in assay [1] (setting [3]) of 0.3 to 30 nM. In assay [2] (setting [4]), the IC50 lay within 1 to 10 nM.
In assay [1] (setting [5]), `Cc1cc(-c2ccc(-n3ccn(C)c3=O)c(Cl)c2)c(O)c(-c2cnc(C)c(N3CCC4(CCCN4C(C)C)C3)c2)n1` (centres unmarked) [Example 973, 1-(2-chloro-4-(3-hydroxy-5′-(1-isopropyl-1,7-diazaspiro[4.4]nonan-7-yl)-6,6′-dimethyl-[2,3′-bipyridin]-4-yl)phenyl)-3-methyl-1H-imidazol-2(3H)-one] came in with a GI50 of 0.3 to 30 nM. Also, the IC50 in assay [2] (setting [6]) lay within 0.01 to 1 nM.
Take `Cn1ccn(-c2ccc(-c3cc(F)cc(-c4cncc(N5C[C@@H](N)[C@H](O)C5)c4)c3O)cc2Cl)c1=O` [Example 491, 1-(3′-(5-((3R,4R)-3-amino-4-hydroxypyrrolidin-1-yl)pyridin-3-yl)-3-chloro-5′-fluoro-2′-hydroxy-[1,1′-biphenyl]-4-yl)-3-methyl-1H-imidazol-2(3H)-one]: the GI50 in assay [1] (setting [3]) is 30 to 300 nM. In addition, the IC50 in assay [2] (setting [4]) lay within 0.01 to 1 nM.
As for `C[C@@H]1CN(c2cc(-c3cccc(-c4ccc(N5CCCC5=O)c(Cl)c4)c3O)ccn2)CCN1` [Example 253, (R)-1-(3-chloro-2′-hydroxy-3′-(2-(3-methylpiperazin-1-yl)pyridin-4-yl)-[1,1′-biphenyl]-4-yl)pyrrolidin-2-one], the 50% growth inhibitory concentration (GI50) in assay [1] (setting [3]) was 300 to 3000 nM. Further, in assay [2] (setting [4]), the half-inhibitory concentration (IC50) lay in the range of 1 to 10 nM.
`CN1CCN(c2ccc(-c3cccc(-c4ccnc(N5CCCC(N)C5)c4)c3O)cc2Cl)C1=O` (centres unmarked) [Example 301, 1-(3′-(2-(3-aminopiperidin-1-yl)pyridin-4-yl)-3-chloro-2′-hydroxy-[1,1′-biphenyl]-4-yl)-3-methylimidazolidin-2-one] gave a GI50 in assay [1] (setting [3]) of 30 to 300 nM. In assay [2] (setting [4]), the concentration for half-maximal inhibition (IC50) was 1 to 10 nM.
Regarding `O=c1[nH]c2ccc(-c3cc(F)cc(-c4ccnc(N5CCNCC5)c4)c3O)cc2[nH]1` [Example 431, 5-(5-fluoro-2-hydroxy-3-(2-(piperazin-1-yl)pyridin-4-yl)phenyl)-1H-benzo[d]imidazol-2(3H)-one], the GI50 in assay [1] (setting [3]) is at least 3000 nM. The half-inhibitory concentration (IC50) in assay [2] (setting [4]) was over 100 nM.
In assay [1] (setting [3]), `CN1CCN(c2ccc(-c3cccc(-c4cc(CO)cc(N5CCNCC5)c4)c3O)cc2Cl)C1=O` [Example 355, 1-(3-chloro-2′-hydroxy-3″-(hydroxymethyl)-5″-(piperazin-1-yl)-[1,1′:3′,1″-terphenyl]-4-yl)-3-methylimidazolidin-2-one] came in with a 50% growth inhibitory concentration (GI50) of 30 to 300 nM. Also, in assay [2] (setting [4]), the concentration for half-maximal inhibition (IC50) was in the range of 1 to 10 nM.
For the molecule `Cc1cc(-c2ccc(-n3ccn(C)c3=O)c(Cl)c2)c(O)c(-c2cnc(N)c(N3CCC4(CCCN4C(C)C)C3)c2)n1` (centres unmarked) [Example 978, 1-(4-(6′-amino-3-hydroxy-5′-(1-isopropyl-1,7-diazaspiro[4.4]nonan-7-yl)-6-methyl-[2,3′-bipyridin]-4-yl)-2-chlorophenyl)-3-methyl-1H-imidazol-2(3H)-one], the concentration for 50% growth inhibition (GI50) in assay [1] (setting [5]) is 0.3 to 30 nM. In addition, in assay [2] (setting [6]), the half-inhibitory concentration (IC50) fell in the range of 0.01 to 1 nM.
Regarding `CSc1ncc(-c2cc(F)cc(-c3ccc(-n4ccn(C)c4=O)c(Cl)c3)c2O)cc1N1CCN(C(C)(C)C)CC1` [Example 821, 1-(3′-(5-(4-(tert-butyl)piperazin-1-yl)-6-(methylthio)pyridin-3-yl)-3-chloro-5′-fluoro-2′-hydroxy-[1,1′-biphenyl]-4-yl)-3-methyl-1H-imidazol-2(3H)-one], the GI50 in assay [1] (setting [3]) was 0.3 to 30 nM. Moreover, in assay [2] (setting [4]), the half-inhibitory concentration (IC50) was 1 to 10 nM.
The matching figures for `Cn1ccn(-c2ccc(-c3cc(F)cc(-c4ccnc(N5CCC(C)(C(=O)O)C5)c4)c3O)cc2Cl)c1=O` (centres unmarked) [Example 769, 1-(4-(3′-chloro-5-fluoro-2-hydroxy-4′-(3-methyl-2-oxo-2,3-dihydro-1H-imidazol-1-yl)-[1,1′-biphenyl]-3-yl)pyridin-2-yl)-3-methylpyrrolidine-3-carboxylic acid]: 300 to 3000 nM and 1 to 10 nM.
